Assay results from patent publication US9730938B2, “Bruton's tyrosine kinase inhibitor combinations and uses thereof” (Pharmacyclics LLC, priority 2014, dated 2017).

Key:
CARD11 / NF-κB pathway = experiment: Western blot analysis, Jeko cells containing CARD11 L225LI (mut10); type: cell-based; settings: FIG. 8
Description: The cell lysates were prepared from the cells which were treated with different concentrations of inhibitors for overnight incubation. Antibodies that correlate to the proteins of interest were used for detection.

SU-DHL-2 = experiment: Combined drug treatment cell viability, CellTiter-Glo assay (Example 1); type: cell-based; settings: 3 days
Description: (§1) DLBCL cells at either 1×10^4 cells or 2×10^4 cells were plated onto each well of a 96-W plate (Table 1).
(§2) The stock solutions for the IDH1 inhibitor AGI5198 and the MALT1 inhibitor MI-2 were each prepared at 50 mM concentration.
(§3) The 96-W plate was then incubated for 3 days. Cell viability was examined using a CellTiter-Glo assay.
(§4) A 40 μL of CellTiter-Glo reagent was added directly into each well of the 96-W plate. The plate was then shaken on a Shaker (Labsystem Wellmix) at speed 5 for 10-20 min at room temperature. Next, 100 μL of the mixed medium was transferred to a white, non-transparent, flat bottom 96-W plate for assaying. A Flexstation 3 luminometer was used for detecting and measuring the luminescent signals. Measurements were taken at room temperature.
(§5) In general, the combination is described as synergistic (CI<1), additive (CI=1), or antagonistic (CI>1). Synergism is further separated into very strong synergism (<0.1), strong synergism (0.1-0.3), synergism (0.3-0.7), moderate synergism (0.7-0.85), and slight synergism (0.85-0.9).

OCI-LY-10 = experiment: as above; type: cell-based; settings: 3 days
Description: as §1, §2, §3, §4, §5

TMD8 = experiment: as above; type: cell-based; settings: 3 days
Description: as §1, §2, §3, §4, §5

OCI-LY-3 = experiment: as above; type: cell-based; settings: 3 days
Description: as §1, §2, §3, §4, §5

U2932 = experiment: as above; type: cell-based; settings: 3 days
Description: as §1, §2, §3, §4, §5

Jeko cells = experiment: 3-day CellTiter Glow combination study in Jeko cells with wild-type or mutant CARD11; type: cell-based; settings: FIG. 6
Description: (§6) Jeko cells, a MCL cell line, and OCI-Ly3, a DLBCL cell line, were used for this experiment.
(§7) In summary, 10,000 cells were plated into 96-well plates and treated with different concentrations of inhibitors. 3 days later, CellTiter Glow reagent was added into the wells and the luminescent signals were measured.

ABC-DLBCL cells = settings: Ferch et al. 2009; Hailfinger et al. 2009; cited from earlier work
OCI-Ly3 cells = experiment: 3-day CellTiter Glow combination study in OCI-Ly3 cells; type: cell-based; settings: in combination with ibrutinib; FIG. 7
Description: as §6, §7

[1] = ibrutinib 0 nM, IDH1i 10 uM / MALT1i 200 nM alone
[2] = ibrutinib 0.0256 nM, IDH1i 10 uM / MALT1i 200 nM / medium alone
[3] = ibrutinib 0.128 nM, IDH1i 10 uM / MALT1i 200 nM / medium alone
[4] = ibrutinib 0.64 nM, IDH1i 10 uM / MALT1i 200 nM / medium alone
[5] = ibrutinib 3.2 nM, IDH1i 10 uM / MALT1i 200 nM / medium alone
[6] = ibrutinib 16 nM, IDH1i 10 uM / MALT1i 200 nM / medium alone
[7] = ibrutinib 80 nM, IDH1i 10 uM / MALT1i 200 nM / medium alone
[8] = ibrutinib 400 nM, IDH1i 10 uM / MALT1i 200 nM / medium alone
[9] = ibrutinib 2000 nM, IDH1i 10 uM / MALT1i 200 nM / medium alone
[10] = ibrutinib 10000 nM, IDH1i 10 uM / MALT1i 200 nM / medium alone
[11] = ibrutinib 0 nM, IDH1i 10 uM / MALT1i 5 uM alone
[12] = ibrutinib 0.0256 nM, IDH1i 10 uM / MALT1i 5 uM / medium alone
[13] = ibrutinib 0.128 nM, IDH1i 10 uM / MALT1i 5 uM / medium alone
[14] = ibrutinib 0.64 nM, IDH1i 10 uM / MALT1i 5 uM / medium alone
[15] = ibrutinib 3.2 nM, IDH1i 10 uM / MALT1i 5 uM / medium alone
[16] = ibrutinib 16 nM, IDH1i 10 uM / MALT1i 5 uM / medium alone
[17] = ibrutinib 80 nM, IDH1i 10 uM / MALT1i 5 uM / medium alone
[18] = ibrutinib 400 nM, IDH1i 10 uM / MALT1i 5 uM / medium alone
[19] = ibrutinib 2000 nM, IDH1i 10 uM / MALT1i 5 uM / medium alone
[20] = ibrutinib 10000 nM, IDH1i 10 uM / MALT1i 5 uM / medium alone

Compound: COCCOc1nc(-c2ccc(Cl)c(Cl)c2)n(-c2ccc(NC(=O)CCl)cc2)n1 [MI-2]
- effect on NF-κB pathway together with ibrutinib (CARD11 / NF-κB pathway): in some instances synergize with ibrutinib to inhibit the NF-κB pathway
- effect on CARD11 protein (CARD11 / NF-κB pathway; overnight incubation): cause degradation of CARD11
- luminescence (CellTiter-Glo) (SU-DHL-2; [1]): 131429.7
- luminescence (CellTiter-Glo) (SU-DHL-2; [2]): 127667.9
- luminescence (CellTiter-Glo) (SU-DHL-2; [3]): 145168.7
- luminescence (CellTiter-Glo) (SU-DHL-2; [4]): 148058.4
- luminescence (CellTiter-Glo) (SU-DHL-2; [5]): 156036.5
- luminescence (CellTiter-Glo) (SU-DHL-2; [6]): 153735.3
- luminescence (CellTiter-Glo) (SU-DHL-2; [7]): 154662.6
- luminescence (CellTiter-Glo) (SU-DHL-2; [8]): 152400.8
- luminescence (CellTiter-Glo) (SU-DHL-2; [9]): 151552.3
- luminescence (CellTiter-Glo) (SU-DHL-2; [10]): 61725.8
- luminescence (CellTiter-Glo) (OCI-LY-10; [11]): 19317.19
- luminescence (CellTiter-Glo) (OCI-LY-10; [12]): 21817.96
- luminescence (CellTiter-Glo) (OCI-LY-10; [13]): 17802.53
- luminescence (CellTiter-Glo) (OCI-LY-10; [14]): 16971.57
- luminescence (CellTiter-Glo) (OCI-LY-10; [15]): 13413.69
- luminescence (CellTiter-Glo) (OCI-LY-10; [16]): 7749.49
- luminescence (CellTiter-Glo) (OCI-LY-10; [17]): 9592.85
- luminescence (CellTiter-Glo) (OCI-LY-10; [18]): 9064.30
- luminescence (CellTiter-Glo) (OCI-LY-10; [19]): 10110.89
- luminescence (CellTiter-Glo) (OCI-LY-10; [20]): 9734.85
- luminescence (CellTiter-Glo) (TMD8; ibrutinib 0 nM, IDH1i 10 uM / MALT1i 100 nM alone): 71955.73
- luminescence (CellTiter-Glo) (TMD8; ibrutinib 0.0256 nM, IDH1i 10 uM / MALT1i 100 nM / medium alone): 26784.40
- luminescence (CellTiter-Glo) (TMD8; ibrutinib 0.128 nM, IDH1i 10 uM / MALT1i 100 nM / medium alone): 23958.89
- luminescence (CellTiter-Glo) (TMD8; ibrutinib 0.64 nM, IDH1i 10 uM / MALT1i 100 nM / medium alone): 25405.91
- luminescence (CellTiter-Glo) (TMD8; ibrutinib 3.2 nM, IDH1i 10 uM / MALT1i 100 nM / medium alone): 24014.24
- luminescence (CellTiter-Glo) (TMD8; ibrutinib 16 nM, IDH1i 10 uM / MALT1i 100 nM / medium alone): 22888.78
- luminescence (CellTiter-Glo) (TMD8; ibrutinib 80 nM, IDH1i 10 uM / MALT1i 100 nM / medium alone): 22045.34
- luminescence (CellTiter-Glo) (TMD8; ibrutinib 400 nM, IDH1i 10 uM / MALT1i 100 nM / medium alone): 21591.99
- luminescence (CellTiter-Glo) (TMD8; ibrutinib 2000 nM, IDH1i 10 uM / MALT1i 100 nM / medium alone): 21278.34
- luminescence (CellTiter-Glo) (TMD8; ibrutinib 10000 nM, IDH1i 10 uM / MALT1i 100 nM / medium alone): 9754.88
- luminescence (CellTiter-Glo) (OCI-LY-3; [11]): 23290.74
- luminescence (CellTiter-Glo) (OCI-LY-3; [12]): 25371.59
- luminescence (CellTiter-Glo) (OCI-LY-3; [13]): 26368.71
- luminescence (CellTiter-Glo) (OCI-LY-3; [14]): 24778.56
- luminescence (CellTiter-Glo) (OCI-LY-3; [15]): 26610.12
- luminescence (CellTiter-Glo) (OCI-LY-3; [16]): 27654.48
- luminescence (CellTiter-Glo) (OCI-LY-3; [17]): 27617.74
- luminescence (CellTiter-Glo) (OCI-LY-3; [18]): 25227.27
- luminescence (CellTiter-Glo) (OCI-LY-3; [19]): 26843.66
- luminescence (CellTiter-Glo) (OCI-LY-3; [20]): 23784.06
- luminescence (CellTiter-Glo) (U2932; [1]): 54720.82
- luminescence (CellTiter-Glo) (U2932; [2]): 48183.41
- luminescence (CellTiter-Glo) (U2932; [3]): 46995.03
- luminescence (CellTiter-Glo) (U2932; [4]): 49419.22
- luminescence (CellTiter-Glo) (U2932; [5]): 48821.08
- luminescence (CellTiter-Glo) (U2932; [6]): 44565.57
- luminescence (CellTiter-Glo) (U2932; [7]): 47234.82
- luminescence (CellTiter-Glo) (U2932; [8]): 41263.93
- luminescence (CellTiter-Glo) (U2932; [9]): 45695.98
- luminescence (CellTiter-Glo) (U2932; [10]): 31838.57
- sensitization of Jeko cells containing the mutant CARD11 to ibrutinib treatment (Jeko cells): sensitized

Compound: Z-VRPR-FMK
- effect on ABC-DLBCL cells (ABC-DLBCL cells): exerts toxic effects

Compound: CC(C)C[C@H](NC(=O)[C@H](CCc1ccccc1)NC(=O)CN1CCOCC1)C(=O)N[C@@H](Cc1ccccc1)C(=O)N[C@@H](CC(C)C)C(=O)[C@@]1(C)CO1 [Carfilzomib]
- sensitization of OCI-Ly3 cells (OCI-Ly3 cells): sensitized
- sensitization of Jeko cells containing the mutant CARD11 to ibrutinib treatment (Jeko cells): sensitized
